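Cells were grown in 96-well plates and exposed to each compound for 48 hours at five concentrations; endpoints were interpolated linearly between bracketing concentrations, or set to the highest concentration if not reached. At the GI50, growth is halved.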 The source made the active and inactive calls. Rule as the data show it: active = GI50 up to about 1.1 µM and inactive = higher.
Tests used:
Test in all cases: DTP human tumour cell line panel, 48 h
HCT-116 = system: HCT-116
HCT-15 = system: HCT-15
HL-60 = system: HL-60
M14 = system: M14
Malme-3M = system: Malme-3M
NCI-H460 = system: NCI-H460
RPMI-8226 = system: RPMI-8226
SF-268 = system: SF-268
SF-295 = system: SF-295
SF-539 = system: SF-539
SK-MEL-28 = system: SK-MEL-28
SK-MEL-2 = system: SK-MEL-2
SK-OV-3 = system: SK-OV-3
SNB-75 = system: SNB-75
SR = system: SR
U-251 = system: U-251
DU-145 = system: DU-145
MDA-MB-231 = system: MDA-MB-231
PC-3 = system: PC-3

Structure (SMILES)	GI50 (HCT-116)	GI50 (HCT-15) [µM]	GI50 (HL-60)	GI50 (M14)	GI50 (Malme-3M)	GI50 (NCI-H460)	GI50 (RPMI-8226)	GI50 (SF-268)	GI50 (SF-295)	GI50 (SF-539)	GI50 (SK-MEL-28)	GI50 (SK-MEL-2)	GI50 (SK-OV-3)	GI50 (SNB-75)	GI50 (SR)	GI50 (U-251)	GI50 (DU-145)	GI50 (MDA-MB-231)	GI50 (PC-3)
COc1cc2c(c(OC(C)=O)c1OC(C)=O)-c1ccc(SC)c(=O)cc1C(NC(C)=O)CC2 (stereo not drawn)	1.36 µM (inactive)	31.7	0.375 µM (active)	2.96 µM (inactive)	1.34 µM (inactive)	3.15 µM (inactive)	1.36 µM (inactive)	1.38 µM (inactive)	2.23 µM (inactive)	0.494 µM (active)	3.24 µM (inactive)	0.565 µM (active)	> 19.5 µM (inactive)	0.255 µM (active)	0.964 µM (active)	2.49 µM (inactive)			
CCCCCCCCCCCCCCCC1(OC)C[N+](C)(C)CCO1 (stereo not drawn)	1.63 µM (inactive)	6.01	0.0883 µM (active)	1.65 µM (inactive)	2.18 µM (inactive)	2.09 µM (inactive)		2.08 µM (inactive)	1.69 µM (inactive)	1.74 µM (inactive)	2.37 µM (inactive)	2.38 µM (inactive)	4.89 µM (inactive)	0.0556 µM (active)	2.25 µM (inactive)	1.6 µM (inactive)	2.35 µM (inactive)	1.75 µM (inactive)	2.4 µM (inactive)
CCN(CC)C(=O)c1c(N2CCOCC2)cc(N(CC)CC)oc1=O	> 100 µM (inactive)	> 100	> 100 µM (inactive)	> 100 µM (inactive)	> 100 µM (inactive)	> 100 µM (inactive)	> 100 µM (inactive)	> 100 µM (inactive)	> 100 µM (inactive)	> 100 µM (inactive)	> 100 µM (inactive)	> 100 µM (inactive)	> 100 µM (inactive)	> 100 µM (inactive)	> 100 µM (inactive)	> 100 µM (inactive)			
O=C(CSc1nc2ccccc2c(=O)n1-c1ccccc1)N/N=C1\C(=O)Nc2ccc(F)cc21	2.02 µM (inactive)	2	1.82 µM (inactive)	1.9 µM (inactive)	2.01 µM (inactive)	2.19 µM (inactive)	2.3 µM (inactive)	2.25 µM (inactive)	1.87 µM (inactive)	3.14 µM (inactive)	2.08 µM (inactive)	1.88 µM (inactive)	1.81 µM (inactive)		1.53 µM (inactive)	8.93 µM (inactive)	1.89 µM (inactive)	2.01 µM (inactive)	1.85 µM (inactive)
COc1ccc(CNc2nc(NCc3ccc(OC)cc3)nc(NC3CCCC3)n2)cc1	2.64 µM (inactive)	3.19	3.34 µM (inactive)	2.91 µM (inactive)	8.53 µM (inactive)	3.6 µM (inactive)	2.24 µM (inactive)	7.18 µM (inactive)	2.18 µM (inactive)	2.75 µM (inactive)	10.9 µM (inactive)		5.28 µM (inactive)	16.4 µM (inactive)	2.67 µM (inactive)	4.5 µM (inactive)	3.44 µM (inactive)	3.54 µM (inactive)	2.84 µM (inactive)
Cc1cc(NS(=O)(=O)c2ccc(NC(=O)c3cccc4c(Nc5ccc(S(=O)(=O)N=C(N)N)cc5)c5ccccc5nc34)cc2)no1	> 100 µM (inactive)	> 100	> 100 µM (inactive)	> 100 µM (inactive)	> 100 µM (inactive)	> 100 µM (inactive)	> 100 µM (inactive)	> 100 µM (inactive)	> 100 µM (inactive)	> 100 µM (inactive)	> 100 µM (inactive)		> 100 µM (inactive)	> 100 µM (inactive)	> 100 µM (inactive)	> 100 µM (inactive)			
Cc1ccc(C2=[N+]([O-])c3ccccc3C2=O)cc1	23.6 µM (inactive)	16.5	7.98 µM (inactive)	21.7 µM (inactive)	22.9 µM (inactive)	36.3 µM (inactive)	29.4 µM (inactive)	35.1 µM (inactive)	28.8 µM (inactive)	30.9 µM (inactive)	15.8 µM (inactive)	> 46.8 µM (inactive)	> 100 µM (inactive)	44.4 µM (inactive)	36.1 µM (inactive)	19 µM (inactive)			
CCn1cc(C(=O)O)c(=O)c2cc(F)c(N3CCNCC3)nc21 [ENOXACIN]	65.6 µM (inactive)	> 100	> 100 µM (inactive)	> 100 µM (inactive)	74.1 µM (inactive)	> 100 µM (inactive)	> 100 µM (inactive)	> 100 µM (inactive)	> 100 µM (inactive)	> 100 µM (inactive)	> 100 µM (inactive)	> 100 µM (inactive)	> 100 µM (inactive)	> 100 µM (inactive)	77.8 µM (inactive)	66.7 µM (inactive)			
